From patent US8134015B2, “Compound inhibiting in vivo phosphorous transport and medicine containing the same” (Kyowa Hakko Kirin Co., Ltd., priority 2003, dated 2012)

What was measured:
human NaPi-2a = biological target: T1, human NaPi-2a (Homo sapiens, UniProt Q06495); test: Sodium-dependent phosphate uptake of Xenopus oocytes which expressed NaPi-2a (32P); format: cell-based; conditions: phosphate uptake, Xenopus oocytes expressing human NaPi-2a; five concentration levels
T1 construct: expressed in transfected cells
T1 sequence (Q06495 1-639): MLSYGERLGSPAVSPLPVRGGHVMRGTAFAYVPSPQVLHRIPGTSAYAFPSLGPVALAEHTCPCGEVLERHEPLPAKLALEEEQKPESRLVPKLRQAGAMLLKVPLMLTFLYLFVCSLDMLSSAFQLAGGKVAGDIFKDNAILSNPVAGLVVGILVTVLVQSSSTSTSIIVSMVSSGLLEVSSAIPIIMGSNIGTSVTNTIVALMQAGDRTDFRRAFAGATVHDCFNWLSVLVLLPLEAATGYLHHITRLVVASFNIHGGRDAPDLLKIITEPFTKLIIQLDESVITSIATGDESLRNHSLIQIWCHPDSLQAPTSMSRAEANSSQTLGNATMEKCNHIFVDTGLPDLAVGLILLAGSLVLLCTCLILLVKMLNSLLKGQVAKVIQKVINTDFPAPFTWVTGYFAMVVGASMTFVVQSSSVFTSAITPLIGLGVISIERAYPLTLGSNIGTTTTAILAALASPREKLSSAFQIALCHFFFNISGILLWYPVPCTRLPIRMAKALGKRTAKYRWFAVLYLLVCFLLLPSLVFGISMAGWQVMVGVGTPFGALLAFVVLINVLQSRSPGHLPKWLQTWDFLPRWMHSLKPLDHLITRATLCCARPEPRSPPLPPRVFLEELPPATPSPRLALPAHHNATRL
Text: Experiment of Sodium-Dependent Phosphate Uptake of Xenopus oocytes which Expressed NaPi-2a
In the test, a group with the addition of choline chloride (Choline Cl) was used as a negative control for nonspecific uptake, and PFA (phosphonoformic acid) was used as a positive control for phosphate transport inhibition.

rat NaPi-2b = biological target: T2, rat NaPi-2b (Rattus norvegicus, UniProt Q9JJ09); test: Sodium-dependent phosphate uptake of Xenopus oocytes which expressed NaPi-2b (32P); format: cell-based; conditions: for IC50: Xenopus oocytes expressing rat NaPi-2b, 32P radioactive phosphorus, read-out: IC50 (phosphate uptake inhibitory activity)
T2 construct: expressed in transfected cells; host or cells: Xenopus oocytes injected with cRNA
T2 sequence (Q9JJ09 1-695): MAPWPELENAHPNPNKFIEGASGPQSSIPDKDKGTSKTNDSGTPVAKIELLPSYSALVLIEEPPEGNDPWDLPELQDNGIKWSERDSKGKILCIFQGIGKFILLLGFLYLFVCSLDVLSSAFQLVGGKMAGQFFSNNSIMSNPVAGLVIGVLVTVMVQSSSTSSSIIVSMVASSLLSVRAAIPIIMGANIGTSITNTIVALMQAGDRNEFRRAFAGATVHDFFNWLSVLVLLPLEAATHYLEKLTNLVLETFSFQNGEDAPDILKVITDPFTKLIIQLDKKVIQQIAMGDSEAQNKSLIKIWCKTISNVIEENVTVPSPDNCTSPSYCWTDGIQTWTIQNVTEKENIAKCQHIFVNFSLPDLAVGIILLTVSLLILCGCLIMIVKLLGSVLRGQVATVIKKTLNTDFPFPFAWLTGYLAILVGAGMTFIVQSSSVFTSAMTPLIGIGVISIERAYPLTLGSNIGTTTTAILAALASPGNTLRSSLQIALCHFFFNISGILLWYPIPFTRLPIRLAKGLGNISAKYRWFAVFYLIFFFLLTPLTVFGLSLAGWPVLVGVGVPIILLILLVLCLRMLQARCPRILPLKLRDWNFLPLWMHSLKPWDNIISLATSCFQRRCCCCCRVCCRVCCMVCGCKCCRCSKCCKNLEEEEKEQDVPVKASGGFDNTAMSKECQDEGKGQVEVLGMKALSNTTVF
In short: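 Oocytes injected with rat NaPi-2b cRNA, cultured 2 d, then 32P uptake measured with compound. Values: % inhibition at 300 and 100 μM, both from one inhibition curve.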

| SMILES | IC50 (human NaPi-2a) [nM] | IC50 (rat NaPi-2b) [nM] | inhibition at 300 µM (rat NaPi-2b; phosphate uptake, oocytes expressing rat NaPi-2b, 300 μM, determined from inhibition curve) [%] |
| --- | --- | --- | --- |
| CC(O)CN(Cc1cccc(C(=O)Nc2sc3c(c2C(=O)N/N=C/c2ccc(Cl)c(C(F)(F)F)c2)CCCC3)c1)CC(C)O (stereo not shown) [Compound 631, 3-{[Bis-(2-hydroxy-propyl)-amino]-methyl}-N-[3-(4-chloro-3-trifluoromethyl-benzylidene-hydrazinocarbonyl)-4,5,6,7-tetrahydro-benzo[b]thiophen-2-yl]-benzamide] | 2430 | < 1000 | – |
| Cc1ccc(/C=N/NC(=O)c2c(C)csc2NC(=O)c2cccc(CN3CCC4(CC3)OCCO4)c2)cc1C [Compound 832, N-[3-(3,4-Dimethyl-benzylidene-hydrazinocarbonyl)-4-methyl-thiophen-2-yl]-3-(1,4-dioxa-8-aza-spiro[4,5]dec-8-ylmethyl)-benzamide] | 6400 | 4970 | – |
| COc1ccc(/C=N/NC(=O)c2c(C)csc2NC(=O)c2cccc(CN(CCO)CCO)c2)cc1 [Compound 791, 3-{[Bis-(2-hydroxy-ethyl)-amino]-methyl}-N-[3-(4-methoxy-benzylidene-hydrazinocarbonyl)-4-methyl-thiophen-2-yl]-benzamide] | 6700 | 5500 | – |
| O=C(Nc1sc2ccccc2c1C(=O)N/N=C/c1ccc(Cl)c(C(F)(F)F)c1)c1cccc(CN2CCC(CO)CC2)c1 [Compound 802, N-[3-(4-Chloro-3-trifluoromethyl-benzylidene-hydrazinocarbonyl)-benzo[b]thiophen-2-yl]-3-(4-hydroxymethyl-piperidin-1-ylmethyl)-benzamide] | 5960 | 1200 | – |
| CCN(CC)CCSCc1cccc(C(=O)Nc2ccc(N3CCCCC3)cc2C(=O)N/N=C/c2ccc(Cl)c(C(F)(F)F)c2)c1 [Compound 878, N-[2-(4-Chloro-3-trifluoromethyl-benzylidene-hydrazinocarbonyl)-4-piperidin-1-yl-phenyl]-3-(2-diethylamino-ethylsulfanylmethyl)-benzamide] | 7220 | < 300 | – |
| O=C(Nc1ccc(N2CCCCC2)cc1C(=O)N/N=C/c1cccc(F)c1)c1cccc(CSCCO)c1 [Compound 883, N-[2-(3-Fluoro-benzylidene-hydrazinocarbonyl)-4-piperidin-1-yl-phenyl]-3-(2-hydroxy-ethylsulfanylmethyl)-benzamide] | 1980 | 40 | – |
| Cc1ccc(/C=N/NC(=O)c2c(C)csc2NC(=O)c2cccc(CN(CCO)CCO)c2)cc1C [Compound 786, 3-{[Bis-(2-hydroxy-ethyl)-amino]-methyl}-N-[3-(3,4-dimethyl-benzylidene-hydrazinocarbonyl)-4-methyl-thiophen-2-yl]-benzamide] | < 3000 | 1330 | – |
| O=C(Nc1sc2c(c1C(=O)N/N=C/c1ccc(Cl)c(C(F)(F)F)c1)CCCC2)c1cccc(CN2CCC(O)CC2)c1 [Compound 637, N-[3-(4-Chloro-3-trifluoromethyl-benzylidene-hydrazinocarbonyl)-4,5,6,7-tetrahydro-benzo[b]thiophen-2-yl]-3-(4-hydroxy-piperidin-1-ylmethyl)-benzamide] | 950 | < 1000 | – |
| O=C(Nc1ccc(N2CCCCC2)cc1C(=O)N/N=C/c1cccc(F)c1)c1cccc(CSCC(O)CO)c1 (stereo not shown) [Compound 902, 3-(2,3-Dihydroxy-propylsulfanylmethyl)-N-[2-(3-fluoro-benzylidene-hydrazinocarbonyl)-4-piperidin-1-yl-phenyl]-benzamide] | < 1000 | < 1000 | – |
| CC(O)CN(Cc1cccc(C(=O)Nc2sc3c(c2C(=O)N/N=C/c2cccc(F)c2)CCCC3)c1)CC(C)O (stereo not shown) [Compound 630, 3-{[Bis-(2-hydroxy-propyl)-amino]-methyl}-N-[3-(3-fluoro-benzylidene-hydrazinocarbonyl)-4,5,6,7-tetrahydro-benzo[b]thiophen-2-yl]-benzamide] | 3500 | < 1000 | – |
| O=C(Nc1ccc(N2CCCCC2)cc1C(=O)N/N=C/c1ccc(Cl)c(C(F)(F)F)c1)c1cccc(CSCC(O)CO)c1 (stereo not shown) [Compound 903, N-[2-(4-Chloro-3-trifluoromethyl-benzylidene-hydrazinocarbonyl)-4-piperidin-1-yl-phenyl]-3-(2,3-dihydroxy-propyl-sulfanylmethyl)-benzamide] | < 1000 | < 1000 | – |
| Cc1ccc(/C=N/NC(=O)c2cc(N3CCCCC3)ccc2NC(=O)c2cccc(CSCCO)c2)cc1C [Compound 880, N-[2-(3,4-Dimethyl-benzylidene-hydrazinocarbonyl)-4-piperidin-1-yl-phenyl]-3-(2-hydroxy-ethylsulfanylmethyl)-benzamide] | 1300 | 80 | – |
| Cc1ccc(/C=N/NC(=O)c2cc(N3CCCCC3)ccc2NC(=O)c2cccc(CSCCO)c2)cc1 [Compound 881, 3-(2-Hydroxy-ethylsulfanylmethyl)-N-[2-(4-methyl-benzylidene-hydrazinocarbonyl)-4-piperidin-1-yl-phenyl]-benzamide] | 2670 | 180 | – |
| CCN(CCO)Cc1ccc(C(=O)Nc2ccc(Cl)cc2C(=O)N/N=C/c2ccc(C)c(C)c2)cc1 [Compound 436, N-[4-Chloro-2-(3,4-dimethyl-benzylidene-hydrazinocarbonyl)-phenyl]-4-{[ethyl-(2-hydroxy-ethyl)-amino]-methyl}-benzamide] | – | 8360 | – |
| Cc1ccc(/C=N/NC(=O)c2sc(C(C)(C)C)cc2NC(=O)c2cccc(CN3CCN(CCO)CC3)c2)cc1C [Compound 991, N-[5-Tert-butyl-2-(3,4-dimethyl-benzylidene-hydrazinocarbonyl)-thiophen-3-yl]-3-[4-(2-hydroxy-ethyl)-piperazin-1-ylmethyl]-benzamide] | – | – | 30.1 |
| O=C(Nc1cc2ccccc2cc1C(=O)N/N=C/c1cccc(F)c1)c1cccc(CN2CCN(CCO)CC2)c1 [Compound 969, N-[3-(3-Fluoro-benzylidene-hydrazinocarbonyl)-naphthalen-2-yl]-3-[4-(2-hydroxy-ethyl)-piperazin-1-ylmethyl]-benzamide] | – | < 3000 | – |
| O=C(Nc1ccc(OCCCCF)cc1C(=O)N/N=C/c1ccc(Cl)c(C(F)(F)F)c1)c1cccc(CSCCO)c1 [Compound 1054, N-[2-(4-Chloro-3-trifluoromethyl-benzylidene-hydrazinocarbonyl)-4-(4-fluoro-butoxy)-phenyl]-3-(2-hydroxy-ethylsulfanylmethyl)-benzamide] | – | < 1000 | – |
| CCN(CCO)Cc1cccc(C(=O)Nc2ccc(Cl)cc2C(=O)N/N=C/c2ccc(F)cc2)c1 [Compound 423, N-[4-Chloro-2-(4-fluoro-benzylidene-hydrazinocarbonyl)-phenyl]-3-{[ethyl-(2-hydroxy-ethyl)-amino]-methyl}-benzamide] | – | < 3000 | – |
| CCN(CC)CCN(C)Cc1cccc(C(=O)Nc2ccc(OCCCCF)cc2C(=O)N/N=C/c2ccc(C)c(C)c2)c1 [Compound 1059, 3-{[(2-Diethylamino-ethyl)-methyl-amino]-methyl}-N-[2-(3,4-dimethyl-benzylidene-hydrazinocarbonyl)-4-(4-fluoro-butoxy)-phenyl]-benzamide] | – | 430 | – |
| CCN(CC)CCSCc1cccc(C(=O)Nc2ccc(N3CCCCC3)cc2C(=O)N/N=C/c2ccc(C)c(C)c2)c1 [Compound 876, 3-(2-Diethylamino-ethylsulfanylmethyl)-N-[2-(3,4-dimethyl-benzylidene-hydrazinocarbonyl)-4-piperidin-1-yl-phenyl]-benzamide] | – | < 3000 | – |
| CCN(CC)CCN(C)Cc1cccc(C(=O)Nc2ccc(OC)cc2C(=O)N/N=C/c2ccc(Cl)c(C(F)(F)F)c2)c1 [Compound 1023, N-[2-(4-Chloro-3-trifluoromethyl-benzylidene-hydrazinocarbonyl)-4-methoxy-phenyl]-3-{[(2-diethylamino-ethyl)-methyl-amino]-methyl}-benzamide] | – | 990 | – |
